How the values were obtained:
Format in all cases: in vivo
[1] = test system: foxtail, giant (giant foxtail, Setaria faberi); experiment: Test A preemergence soil spray, visual injury rating 0-100; conditions: 1000 g ai/ha, 10 days, 0 = no effect, 100 = complete control
In short: (§1)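 Compound in a non-phytotoxic, surfactant-containing solvent is applied either as a directed soil spray before seedlings emerge or onto emerged plants 2-10 cm tall; pots hold a loam-sand blend. Plants grow 10 days under greenhouse conditions and are rated by eye against untreated controls (0 no effect, 100 complete control).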

[2] = test system: goosegrass (Eleusine indica); experiment: as above; conditions: 1000 g ai/ha, 10 days, 0 = no effect, 100 = complete control
In short: as §1

[3] = test system: kochia (Bassia scoparia); experiment: as above; conditions: 1000 g ai/ha, 10 days, 0 = no effect, 100 = complete control
In short: as §1

[4] = test system: palmer (palmer amaranth, palmer pigweed, Amaranthus palmeri); experiment: as above; conditions: 1000 g ai/ha, 10 days, 0 = no effect, 100 = complete control
In short: as §1

[5] = test system: ragweed (common ragweed, Ambrosia artemisiifolia); experiment: as above; conditions: 1000 g ai/ha, 10 days, 0 = no effect, 100 = complete control
In short: as §1

[6] = test system: ryegrass, Italian (italian ryegrass, Lolium multiflorum); experiment: as above; conditions: 1000 g ai/ha, 10 days, 0 = no effect, 100 = complete control
In short: as §1

[7] = test system: blackgrass (Alopecurus myosuroides); experiment: Test A postemergence application, visual injury rating 0-100; conditions: Postemergence, 1000 g ai/ha, 0 to 100 scale, 10 days
In short: as §1

[8] = test system: foxtail, giant (giant foxtail, Setaria faberi); experiment: as above; conditions: 1000 g ai/ha, 0 to 100 scale, 10 days
In short: as §1

[9] = test system: goosegrass (Eleusine indica); experiment: as above; conditions: 1000 g ai/ha, 0 to 100 scale, 10 days
In short: as §1

[10] = test system: horseweed (Erigeron canadensis); experiment: as above; conditions: Postemergence, 1000 g ai/ha, 0 to 100 scale, 10 days
In short: as §1

[11] = test system: kochia (Bassia scoparia); experiment: as above; conditions: Postemergence, 1000 g ai/ha, 0 to 100 scale, 10 days
In short: as §1

[12] = test system: palmer (palmer amaranth, palmer pigweed, Amaranthus palmeri); experiment: as above; conditions: Postemergence, 1000 g ai/ha, 0 to 100 scale, 10 days
In short: as §1

[13] = test system: ragweed (common ragweed, Ambrosia artemisiifolia); experiment: as above; conditions: Postemergence, 1000 g ai/ha, 0 to 100 scale, 10 days
In short: as §1

[14] = test system: ryegrass, Italian (italian ryegrass, Lolium multiflorum); experiment: as above; conditions: Postemergence, 1000 g ai/ha, 0 to 100 scale, 10 days
In short: as §1

[15] = test system: barnyardgrass (Echinochloa crusgalli); experiment: Test B flooded paddy test, visual plant response rating 0-100; conditions: 250 g ai/ha, Flood, applied to paddy water, evaluated after 13 days
In short: (§2)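 Visual evaluation after 13 days. Water-applied treatment, 3 cm flood depth held constant, plants at 2-leaf stage at treatment.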

[16] = test system: ducksalad (Heteranthera limosa); experiment: as above; conditions: 250 g ai/ha, Flood, applied to paddy water, evaluated after 13 days
In short: as §2

[17] = test system: rice (Oryza sativa); experiment: as above; conditions: 250 g ai/ha, Flood, applied to paddy water, evaluated after 13 days
In short: as §2

[18] = test system: sedge, umbrella (small-flower umbrella sedge, Cyperus difformis); experiment: as above; conditions: 250 g ai/ha, Flood, applied to paddy water, evaluated after 13 days
In short: as §2

**Q.** For `COC(=O)[C@@H]1C=C[C@H](NC(=O)C2(C)CN(c3cc(F)cc(F)c3)C(=O)O2)C1` (stereo partly drawn) [Compound 27, Methyl (1S,4R)-4-[[[3-(3,5-difluorophenyl)-5-methyl-2-oxo-5-oxazolidinyl]carbonyl]amino]-2-cyclopentene-1-carboxylate], which “Foxtail, Giant plant response rating (0 to 100 scale)” value [1] is on record?
**A.** Its value is 100.

**Q.** What about the “Goosegrass plant response rating (0 to 100 scale)” value [2] of the same compound?
**A.** The value was 100.

**Q.** And the “Kochia plant response rating (0 to 100 scale)” value [3]?
**A.** Its value is 100.

**Q.** And the “Amaranth, Palmer / Pigweed, Palmer plant response rating (0 to 100 scale)” value [4]?
**A.** The value was 100.

**Q.** What about the “Ragweed plant response rating (0 to 100 scale)” value [5] of the same compound?
**A.** Its value is 50.

**Q.** And the “Ryegrass, Italian plant response rating (0 to 100 scale)” value [6]?
**A.** Its value is 100.

**Q.** What about the “Blackgrass plant response rating” value [7] of the same compound?
**A.** The value was 90.

**Q.** What about the “Foxtail, Giant plant response rating” value [8] of the same compound?
**A.** The value was 90.

**Q.** And the “Goosegrass plant response rating” value [9]?
**A.** The value was 90.

**Q.** What about the “Horseweed plant response rating” value [10] of the same compound?
**A.** Its value is 80.

**Q.** And the “Kochia plant response rating” value [11]?
**A.** The value was 80.

**Q.** What about the “Amaranth, Palmer plant response rating” value [12] of the same compound?
**A.** The value was 90.

**Q.** And the “Ragweed plant response rating” value [13]?
**A.** The value was 80.

**Q.** What about the “Ryegrass, Italian plant response rating” value [14] of the same compound?
**A.** Its value is 100.

**Q.** And the “Plant response rating, Barnyardgrass (0 to 100 scale, 0 is no effect and 100 is complete control)” value [15]?
**A.** The value was 90.

**Q.** What about the “Plant response rating, Ducksalad (0 to 100 scale, 0 is no effect and 100 is complete control)” value [16] of the same compound?
**A.** The value was 85.

**Q.** What about the “Plant response rating, Rice (0 to 100 scale, 0 is no effect and 100 is complete control)” value [17] of the same compound?
**A.** The value was 35.

**Q.** And the “Plant response rating, Sedge, Umbrella (0 to 100 scale, 0 is no effect and 100 is complete control)” value [18]?
**A.** Its value is 50.

Reference: patent US20260285850A1, “SUBSTITUTED OXAZOLIDINONES AND IMIDAZOLINONES AS HERBICIDES” (FMC CORPORATION, priority 2023, published 2026)
